The values below are quoted from earlier work in patent US20090005340A1, “Bioactive Agents Produced By Submerged Cultivation of a Basidiomycete Cell” (MediMush A/S, priority 2005, published 2009).

The subject of the data set is cytochrome P450s (CYPs).

Take Lentinan: the “expression of cytochrome P450s (CYPs)” value is given as “suppress the expression”.
